Holding throughout (assay): NCI anticancer screen, dose series, 48 h
Experiment [1] concerns 786-0.
In experiment [2] the test system is A498.
Experiment [3] concerns A549.
Experiment [4] deals with BT-549.
Experiment [5] concerns CCRF-CEM.
Experiment [6] concerns EKVX.
Experiment [7] has as its system IGROV-1.
Experiment [8] relates to MDA-N.
Experiment [9] has as its system Malme-3M.
The test system of experiment [10] is NCI-H522.
For experiment [11], the system named is NCI/ADR-RES.
Experiment [12] relates to OVCAR-3.
Experiment [13] concerns SF-295.
Experiment [14] relates to SK-MEL-28.
For experiment [15], the system named is SK-MEL-5.
For experiment [16], the system named is SNB-19.
In experiment [17] the test system is SNB-75.
Experiment [18] deals with TK-10.
For experiment [19], the system named is UACC-257.
The test system of experiment [20] is UACC-62.

The record followed here is ChEMBL document CHEMBL1201862, “PubChem BioAssay data set” (2004).

SMILES strings stand for the structures.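 All cell lines were grown in 96-well plates and treated with compound for 48 hours. The concentration for 50% growth inhibition is given as GI50.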 Calls of active or inactive are those of the source. No stated cut-off is given here; in the data, active = GI50 up to about 1.1 µM and inactive = higher.

Regarding `CN(C)/C=N/CCN1CCOCC1`, the GI50 in experiment [1], in experiment [2], in experiment [3], in experiment [4], in experiment [5] and in [6] was > 100 µM (inactive) in each case. Besides, the GI50 in experiment [7], in experiment [8], in [9], in [10], in experiment [11] and in experiment [12] was > 100 µM (inactive) each time. In addition, the GI50 in experiment [13] was > 100 µM (inactive); in [14] it was 57.3 µM (inactive); in [15], > 100 µM (inactive); in [16], > 100 µM (inactive); in experiment [17], 97.7 µM (inactive); in experiment [18], > 100 µM (inactive). The GI50 in [19] and in experiment [20] was > 100 µM (inactive) throughout.

Take `C[C@H](NC(=O)c1ccc(CNC(=O)/C=C/c2cccc(Oc3ccccc3)c2)cc1)c1ccccc1`: the GI50 in experiment [1] is 36.5 µM (inactive); in experiment [2] it was 73.6 µM (inactive); in experiment [3] it was 55.8 µM (inactive); in [4], > 100 µM (inactive); in experiment [5], > 100 µM (inactive); in [6] it was > 100 µM (inactive). The GI50 in [7], in experiment [8], in [9], in experiment [10], in experiment [11] and in experiment [12] was > 100 µM (inactive) in each case. Also, the GI50 in experiment [13] is 40.8 µM (inactive); in experiment [14], 80.9 µM (inactive); in experiment [15], 58.5 µM (inactive); in experiment [16] it was 37.8 µM (inactive); in experiment [17] it was 15.2 µM (inactive); in experiment [18] it was 61.4 µM (inactive). Besides, the GI50 in experiment [19] and in experiment [20] was > 100 µM (inactive) in each case.

With `CCC(=O)Oc1c2ccsc2c(OC(=O)CC)c2ccsc12`, the GI50 in experiment [1] was 2.13 µM (inactive); in [2], 3.1 µM (inactive); in experiment [3], 2.05 µM (inactive); in experiment [4], 0.174 µM (active); in experiment [5], 0.478 µM (active); in experiment [6], 0.871 µM (active). Besides, the GI50 in experiment [7] was 1.95 µM (inactive); in experiment [8], 0.0555 µM (active); in [9], 0.039 µM (active); in [10] it was 0.474 µM (active); in experiment [11], 0.279 µM (active); in experiment [12], 0.351 µM (active). Moreover, the GI50 in experiment [13] was 0.254 µM (active); in experiment [14], 0.178 µM (active); in experiment [15], 0.0753 µM (active); in experiment [16], 0.54 µM (active); in experiment [17] it was 0.184 µM (active); in [18] it was 2.25 µM (inactive). Further, the GI50 in experiment [19] is 0.171 µM (active); in experiment [20], 0.217 µM (active).

On to `NS(=O)(=O)OCCCCCCCOS(N)(=O)=O`, for which the GI50 in [1] is 144 µM (inactive); in experiment [2] it was 377 µM (inactive); in experiment [3], 109 µM (inactive); in experiment [4], 151 µM (inactive); in [5], 46.8 µM (inactive); in experiment [6] it was 272 µM (inactive). Moreover, the GI50 in experiment [7] was 376 µM (inactive); in experiment [8], 392 µM (inactive); in experiment [9], 437 µM (inactive); in [10], 259 µM (inactive); in [11], 273 µM (inactive); in experiment [12] it was 361 µM (inactive). For the same compound, the GI50 is > 92.9 µM (inactive) in [13]; 535 µM (inactive) in experiment [14]; 319 µM (inactive) in [15]; 275 µM (inactive) in [16]; 94.8 µM (inactive) in experiment [17]; 649 µM (inactive) in experiment [18]. Also, the GI50 in experiment [19] is 451 µM (inactive); in [20] it was 61.4 µM (inactive).

Regarding `CN1CCc2ccccc2C1Cc1ccccc1NC(=O)c1sc2ccccc2c1Cl` (stereo not given), the GI50 in experiment [1] was > 100 µM (inactive); in [2], > 100 µM (inactive); in experiment [3] it was > 100 µM (inactive); in [4], > 100 µM (inactive); in [5] it was 50.9 µM (inactive); in experiment [6], > 100 µM (inactive). For the same compound, the GI50 in experiment [7], in experiment [8], in experiment [9], in experiment [10], in experiment [11] and in experiment [12] was > 100 µM (inactive) each time. In addition, the GI50 in experiment [13], in [14], in experiment [15], in experiment [16], in experiment [17] and in experiment [18] was > 100 µM (inactive) in each case. In addition, the GI50 in [19] and in experiment [20] was > 100 µM (inactive) in each case.
